One experiment concerns beta-cells. The note with it: 3 months treatment; cited from earlier work.
A further experiment relates to human islets. The experiment can be described thus: apoptosis of human islets incubated in high glucose. Conditions: co-incubated with compound vs not co-incubated. It is filed as cell-based. The text has this: Another potential way to intervene in the destruction of beta-cells in the development of Type 1 diabetes is by treatment with compounds that inhibit insulin secretion, thereby inducing beta-cell rest.

As to `CC1=NS(=O)(=O)c2cc(Cl)ccc2N1` [diazoxide], the “residual C-peptide, a marker of beta-cell function” value in the experiment on beta-cells is “preservation of residual C-peptide”.

Take `CC1(NC2=NS(=O)(=O)c3sc(Cl)cc3N2)CC1` [6-chloro-3-(1-methylcyclopropyl)amino-4H-thieno[3,2-e]-1,2,4-thiadiazine 1,1-dioxide]: the “apoptosis, or programmed cell death, of human islets” value in the experiment with human islets is reported as “significantly less apoptosis”.

The values above are taken from patent publication US20030235583A1, “Combined use of a modulator of CD3 and a beta cell resting compound” (priority 2002, published 2003).
